Test results published in paper PMC6150173, “Tryptophan-Containing Cyclic Decapeptides with Activity against Plant Pathogenic Bacteria” (Molecules : A Journal of Synthetic Chemistry and Natural …, 2017).
Several values for one entry are separate records, joined by “and”; a condition that tells them apart may be missing. Identical values can stand only once. Peptide text beside a SMILES is read from it.

Legend:
Assay type in all cases: cell-based
[1] = tested on: erythrocyte suspensions of human blood; test: Hemolytic activity, hemoglobin release; conditions: human blood erythrocytes 5% v/v, absorbance 540 nm, percentage compared to melittin, three replicates; for Hemolysis (%) at 50 µM: peptide 50 μM (table prints 50 µM); for Hemolysis (%) at 125 µM: peptide 125 μM (table prints 125 µM)
Experimental: The hemolytic activity of the compounds was evaluated at 50 and 125 μM by determining hemoglobin release from erythrocyte suspensions of human blood (5% v/v) (Oxoid) using absorbance at 540 nm, as previously described. Three replicates for each peptide concentration were used.

[2] = tested on: Xanthomonas axonopodis pv. vesicatoria 2133-2; conditions: Table S1, MIC range
In short: (§1)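 MIC determined by in vitro growth inhibition across 0.8, 1.6, 3.1, 6.2, 12.5, 25 and 50 μM peptide. Strains tested: E. amylovora PMV6076, P. syringae pv. syringae EPS94 and X. axonopodis pv. vesicatoria 2133-2.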

[3] = tested on: Erwinia amylovora PMV6076; test: Antibacterial activity (MIC), in vitro growth inhibition; conditions: Table S1, MIC range
In short: as §1

[4] = tested on: Pseudomonas syringae pv. syringae EPS94; test: as above; conditions: Table S1, MIC range
In short: as §1

Structure (SMILES)	Hemolysis (%) at 50 µM [1] [%]	Hemolysis (%) at 125 µM [1]	MIC Xav [2] [µM]	MIC Ea [3] [µM]	MIC Pss [4] [µM]
CC(C)C[C@@H]1NC(=O)[C@H](CCCCN)NC(=O)[C@H](CCCCN)NC(=O)[C@H](Cc2c[nH]c3ccccc23)NC(=O)[C@H](CC(C)C)NC(=O)[C@H](CCCCN)NC(=O)[C@H](CCCCN)NC(=O)[C@H](CC(C)C)NC(=O)[C@H](CCCCN)NC(=O)[C@H](CCC(N)=O)NC1=O [BPC084W, c(KLKKLWKKLQ)] (cyclo(KKLQKLKKLW))	54	60%	1.6 to 3.1	12.5 to 25	12.5 to 25
CC(C)C[C@@H]1NC(=O)[C@H](CCC(N)=O)NC(=O)[C@H](CC(C)C)NC(=O)[C@H](CCCCN)NC(=O)[C@H](CCCCN)NC(=O)[C@H](Cc2c[nH]c3ccccc23)NC(=O)[C@H](CC(C)C)NC(=O)[C@H](CCCCN)NC(=O)[C@H](CCCCN)NC(=O)[C@H](CCCCN)NC1=O [BPC086W, c(LKKKLWKKLQ)] (cyclo(KKKLWKKLQL))	4	8% and ≤ 8%	0.8 to 1.6	6.2 to 12.5	3.1 to 6.2
CC(C)C[C@@H]1NC(=O)[C@H](CCCCN)NC(=O)[C@H](CCCCN)NC(=O)[C@H](Cc2c[nH]c3ccccc23)NC(=O)[C@H](CCCCN)NC(=O)[C@H](CC(C)C)NC(=O)[C@H](CC(C)C)NC(=O)[C@H](CCCCN)NC(=O)[C@H](CCCCN)NC(=O)[C@H](CCC(N)=O)NC1=O [BPC088W, c(KKLLKWKKLQ)] (cyclo(KKLLKWKKLQ))	14	19%	1.6 to 3.1	12.5 to 25	6.2 to 12.5
CC(C)C[C@@H]1NC(=O)[C@H](CCCCN)NC(=O)[C@H](CCCCN)NC(=O)[C@H](Cc2c[nH]c3ccccc23)NC(=O)[C@H](CCCCN)NC(=O)[C@H](CC(C)C)NC(=O)[C@H](CCCCN)NC(=O)[C@H](CC(C)C)NC(=O)[C@H](CCCCN)NC(=O)[C@H](CCC(N)=O)NC1=O [BPC090W, c(KLKLKWKKLQ)] (cyclo(KKLQKLKLKW))	9	15%	1.6 to 3.1	12.5 to 25	6.2 to 12.5
CC(C)C[C@@H]1NC(=O)[C@H](CCCCN)NC(=O)[C@H](CCCCN)NC(=O)[C@H](Cc2c[nH]c3ccccc23)NC(=O)[C@H](CCCCN)NC(=O)[C@H](CCCCN)NC(=O)[C@H](CC(C)C)NC(=O)[C@H](CC(C)C)NC(=O)[C@H](CCCCN)NC(=O)[C@H](CCC(N)=O)NC1=O [BPC094W, c(KLLKKWKKLQ)] (cyclo(KKLQKLLKKW))	35	42%	3.1 to 6.2	25 to 50	6.2 to 12.5
CC(C)C[C@@H]1NC(=O)[C@H](CCCCN)NC(=O)[C@H](CC(C)C)NC(=O)[C@H](CCC(N)=O)NC(=O)[C@H](CC(C)C)NC(=O)[C@H](CCCCN)NC(=O)[C@H](CCCCN)NC(=O)[C@H](Cc2c[nH]c3ccccc23)NC(=O)[C@H](CCCCN)NC(=O)[C@H](CCCCN)NC1=O [BPC096W, c(LKLKKWKKLQ)] (cyclo(KKLQLKLKKW))	10	15%	1.6 to 3.1	12.5 to 25	6.2 to 12.5
CC(C)C[C@@H]1NC(=O)[C@H](CCCCN)NC(=O)[C@H](CCCCN)NC(=O)[C@H](Cc2c[nH]c3ccccc23)NC(=O)[C@H](CCCCN)NC(=O)[C@H](CCCCN)NC(=O)[C@H](CCCCN)NC(=O)[C@H](CC(C)C)NC(=O)[C@H](CC(C)C)NC(=O)[C@H](CCC(N)=O)NC1=O [BPC098W, c(LLKKKWKKLQ)] (cyclo(KKKWKKLQLL))	12	18% and below 20%	1.6 to 3.1	12.5 to 25	3.1 to 6.2
CC(C)C[C@@H]1NC(=O)[C@H](CCCCN)NC(=O)[C@H](CCCCN)NC(=O)[C@H](CCCCN)NC(=O)[C@H](CCC(N)=O)NC(=O)[C@H](CCCCN)NC(=O)[C@H](CC(C)C)NC(=O)[C@H](CC(C)C)NC(=O)[C@H](Cc2c[nH]c3ccccc23)NC(=O)[C@H](CCCCN)NC1=O [BPC102W, c(KKKLKWLLKQ)] (cyclo(KKKLKWLLKQ))	12	17%	6.2 to 12.5	12.5 to 25	3.1 to 6.2
CC(C)C[C@@H]1NC(=O)[C@H](CCCCN)NC(=O)[C@H](CCCCN)NC(=O)[C@H](CCC(N)=O)NC(=O)[C@H](CCCCN)NC(=O)[C@H](CC(C)C)NC(=O)[C@H](CC(C)C)NC(=O)[C@H](Cc2c[nH]c3ccccc23)NC(=O)[C@H](CCCCN)NC(=O)[C@H](CCCCN)NC1=O [BPC104W, c(KKLKKWLLKQ)] (cyclo(KKLKKWLLKQ))	2	3%	6.2 to 12.5	12.5 to 25	6.2 to 12.5
CC(C)C[C@@H]1NC(=O)[C@H](CCCCN)NC(=O)[C@H](CCC(N)=O)NC(=O)[C@H](CCCCN)NC(=O)[C@H](CC(C)C)NC(=O)[C@H](CC(C)C)NC(=O)[C@H](Cc2c[nH]c3ccccc23)NC(=O)[C@H](CCCCN)NC(=O)[C@H](CCCCN)NC(=O)[C@H](CCCCN)NC1=O [BPC106W, c(KLKKKWLLKQ)] (cyclo(KKKWLLKQKL))	2	2%	3.1 to 6.2	25 to 50	3.1 to 6.2
CC(C)C[C@@H]1NC(=O)[C@H](CCC(N)=O)NC(=O)[C@H](CCCCN)NC(=O)[C@H](CC(C)C)NC(=O)[C@H](CC(C)C)NC(=O)[C@H](Cc2c[nH]c3ccccc23)NC(=O)[C@H](CCCCN)NC(=O)[C@H](CCCCN)NC(=O)[C@H](CCCCN)NC(=O)[C@H](CCCCN)NC1=O [BPC108W, c(LKKKKWLLKQ)] (cyclo(KKKKWLLKQL))	4	5% and ≤ 8%	1.6 to 3.1	6.2 to 12.5	1.6 to 3.1
CC(C)C[C@@H]1NC(=O)[C@H](CCCCN)NC(=O)[C@H](Cc2c[nH]c3ccccc23)NC(=O)[C@H](CC(C)C)NC(=O)[C@H](CC(C)C)NC(=O)[C@H](CCCCN)NC(=O)[C@H](CCCCN)NC(=O)[C@H](CCCCN)NC(=O)[C@H](CCC(N)=O)NC(=O)[C@H](CCCCN)NC1=O [BPC110W, c(KKKLLWKLKQ)] (cyclo(KKKLLWKLKQ))	3	4%	6.2 to 12.5	12.5 to 25	3.1 to 6.2
CC(C)C[C@@H]1NC(=O)[C@H](CCCCN)NC(=O)[C@H](CCC(N)=O)NC(=O)[C@H](CCCCN)NC(=O)[C@H](CC(C)C)NC(=O)[C@H](CCCCN)NC(=O)[C@H](Cc2c[nH]c3ccccc23)NC(=O)[C@H](CC(C)C)NC(=O)[C@H](CCCCN)NC(=O)[C@H](CCCCN)NC1=O [BPC114W, c(KLKKLWKLKQ)] (cyclo(KKLWKLKQKL))	29	38%	1.6 to 3.1	12.5 to 25	3.1 to 6.2
CC(C)C[C@@H]1NC(=O)[C@H](CCC(N)=O)NC(=O)[C@H](CCCCN)NC(=O)[C@H](CC(C)C)NC(=O)[C@H](CCCCN)NC(=O)[C@H](Cc2c[nH]c3ccccc23)NC(=O)[C@H](CC(C)C)NC(=O)[C@H](CCCCN)NC(=O)[C@H](CCCCN)NC(=O)[C@H](CCCCN)NC1=O [BPC116W, c(LKKKLWKLKQ)] (cyclo(KKKLWKLKQL))	9	14%	3.1 to 6.2	12.5 to 25	3.1 to 6.2
CC(C)C[C@@H]1NC(=O)[C@H](CCCCN)NC(=O)[C@H](Cc2c[nH]c3ccccc23)NC(=O)[C@H](CCCCN)NC(=O)[C@H](CC(C)C)NC(=O)[C@H](CC(C)C)NC(=O)[C@H](CCCCN)NC(=O)[C@H](CCCCN)NC(=O)[C@H](CCC(N)=O)NC(=O)[C@H](CCCCN)NC1=O [BPC118W, c(KKLLKWKLKQ)] (cyclo(KKLLKWKLKQ))	4	4%	12.5 to 25	12.5 to 25	6.2 to 12.5
CC(C)C[C@@H]1NC(=O)[C@H](CCC(N)=O)NC(=O)[C@H](CCCCN)NC(=O)[C@H](CC(C)C)NC(=O)[C@H](CCCCN)NC(=O)[C@H](Cc2c[nH]c3ccccc23)NC(=O)[C@H](CCCCN)NC(=O)[C@H](CC(C)C)NC(=O)[C@H](CCCCN)NC(=O)[C@H](CCCCN)NC1=O [BPC120W, c(LKKLKWKLKQ)] (cyclo(KKLKWKLKQL))	6	9% and below 20%	1.6 to 3.1	12.5 to 25	3.1 to 6.2
CC(C)C[C@@H]1NC(=O)[C@H](CCCCN)NC(=O)[C@H](Cc2c[nH]c3ccccc23)NC(=O)[C@H](CCCCN)NC(=O)[C@H](CCCCN)NC(=O)[C@H](CC(C)C)NC(=O)[C@H](CC(C)C)NC(=O)[C@H](CCCCN)NC(=O)[C@H](CCC(N)=O)NC(=O)[C@H](CCCCN)NC1=O [BPC122W, c(KLLKKWKLKQ)] (cyclo(KKWKLKQKLL))	2	6%	6.2 to 12.5	12.5 to 25	3.1 to 6.2
